According to PubChem BioAssay AID248 (DTP/NCI, 2004):
Inconclusive results and toxic doses are left out. Cut-off read from the data, not from the text of the source: active = T/C of 150% or more; inactive = T/C below 125%.

Tested on: L1210 leukemia ip in BDF1 mice, survival T/C
Assay: NCI In Vivo Anticancer Drug Screen. Data for tumor model L1210 Leukemia (intraperitoneal) in B6D2F1 (BDF1) mice
Details: endpoint: mean survival time, higher = longer survival
In short: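 Antitumor effect is assessed in tumor-bearing animals. Survival in the compound arm is compared with a vehicle-dosed control arm and expressed as their quotient.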

Measured: T/C

COP(=O)(C(OC(=O)C(C)(C)C)=C(C)C)N(C)C (stereo not given)
inactive: dose: 100.0 mg/kg/injection, schedule: Q04DX003 (ip), vehicle: saline with Tween-80 97 % of control | dose: 200.0 mg/kg/injection, schedule: Q04DX003 (ip), vehicle: saline with Tween-80 96 % of control | dose: 400.0 mg/kg/injection, schedule: Q04DX003 (ip), vehicle: saline with Tween-80 96 % of control

C1C2OC3CN1CC(O2)O3
inactive: dose: 50.0 mg/kg/injection, schedule: Q01DX009 (ip), vehicle: saline 97 % of control | dose: 100.0 mg/kg/injection, schedule: Q01DX009 (ip), vehicle: saline 97 % of control | dose: 200.0 mg/kg/injection, schedule: Q01DX009 (ip), vehicle: saline 94 % of control

O=C(CCNC(=O)c1ccccc1)Oc1ccccc1
inactive: dose: 100.0 mg/kg/injection, schedule: Q04DX003 (ip), vehicle: saline 93 % of control | dose: 200.0 mg/kg/injection, schedule: Q04DX003 (ip), vehicle: saline 95 % of control | dose: 400.0 mg/kg/injection, schedule: Q04DX003 (ip), vehicle: saline 92 % of control

O=CNc1cccc2c1-c1ccccc1C2=O
inactive: dose: 100.0 mg/kg/injection, schedule: Q01DX001 (ip), vehicle: carboxymethylcellulose (CMC) 96 % of control | dose: 200.0 mg/kg/injection, schedule: Q01DX001 (ip), vehicle: carboxymethylcellulose (CMC) 91 % of control | dose: 400.0 mg/kg/injection, schedule: Q01DX001 (ip), vehicle: carboxymethylcellulose (CMC) 99 % of control

CC1CN=C(c2ccc3ccccc3c2O)S1 (stereo not given)
inactive: dose: 100.0 mg/kg/injection, schedule: Q01DX005 (ip), vehicle: saline with Tween-80 90 % of control | dose: 100.0 mg/kg/injection, schedule: Q01DX009 (ip), vehicle: saline with Tween-80 113 % of control | dose: 100.0 mg/kg/injection, schedule: Q04DX002 (ip), vehicle: saline with Tween-80 103 % of control | dose: 200.0 mg/kg/injection, schedule: Q01DX005 (ip), vehicle: saline with Tween-80 90 % of control | dose: 200.0 mg/kg/injection, schedule: Q01DX009 (ip), vehicle: saline with Tween-80 90 % of control | dose: 200.0 mg/kg/injection, schedule: Q04DX002 (ip), vehicle: saline with Tween-80 96 % of control | dose: 400.0 mg/kg/injection, schedule: Q01DX009 (ip), vehicle: saline with Tween-80 94 % of control | dose: 400.0 mg/kg/injection, schedule: Q04DX002 (ip), vehicle: saline with Tween-80 103 % of control
